In the experiment the test system is T1, L-glutaminase.
T1 construct: native extracellular enzyme purified from culture (ammonium sulfate, DEAE-cellulose, Sephacryl S-300); 52 kDa by SDS-PAGE (54 kDa in discussion); monomer
Nature of the experiment: steady-state kinetics, ammonia release by Nesslerization. It counts as biochemical, Streptomyces sp. 5 M. The settings on record: substrate 2-5 mM; pH and temperature of the kinetic run not printed (optimum pH 7.5, 40 °C). From the text:
steady-state kinetics, ammonia release by Nesslerization on L-glutaminase | the purified L-glutaminase from Streptomyces sp.

The Km is the substrate concentration at which the rate is half of its maximum.

`NC(=O)CC[C@H](N)C(=O)O` [L-glutamine]: the Michaelis-Menten constant (Km) came to 2620 µM.

(Values after publication PMC11699688, “Unravelling the outcome of L-glutaminase produced by Streptomyces sp. strain 5 M as an anti-neoplasm activity” (Microbial Cell Factories, 2025).)
